Assay results: ChEMBL document CHEMBL4476867, “Hydroxy formamide derivatives and their use” (2016)

Key:
[1] = molecular target: T1, Bone morphogenetic protein 1 (Homo sapiens, UniProt P13497); assay: Inhibition of C-terminal FLAG-6x-His epitope tagged and N-terminal human RAGE signal sequence tagged human BMP1 (23 to 721 amino acids) expressed in CHO-E1 cells pre-incubated for 10 mins before promyostatin peptide substrate addition and measured after 60 mins using 0.5 nM BMP1 by FRET based assay; assay type: cell-based
T1 sequence (P13497 whole entry): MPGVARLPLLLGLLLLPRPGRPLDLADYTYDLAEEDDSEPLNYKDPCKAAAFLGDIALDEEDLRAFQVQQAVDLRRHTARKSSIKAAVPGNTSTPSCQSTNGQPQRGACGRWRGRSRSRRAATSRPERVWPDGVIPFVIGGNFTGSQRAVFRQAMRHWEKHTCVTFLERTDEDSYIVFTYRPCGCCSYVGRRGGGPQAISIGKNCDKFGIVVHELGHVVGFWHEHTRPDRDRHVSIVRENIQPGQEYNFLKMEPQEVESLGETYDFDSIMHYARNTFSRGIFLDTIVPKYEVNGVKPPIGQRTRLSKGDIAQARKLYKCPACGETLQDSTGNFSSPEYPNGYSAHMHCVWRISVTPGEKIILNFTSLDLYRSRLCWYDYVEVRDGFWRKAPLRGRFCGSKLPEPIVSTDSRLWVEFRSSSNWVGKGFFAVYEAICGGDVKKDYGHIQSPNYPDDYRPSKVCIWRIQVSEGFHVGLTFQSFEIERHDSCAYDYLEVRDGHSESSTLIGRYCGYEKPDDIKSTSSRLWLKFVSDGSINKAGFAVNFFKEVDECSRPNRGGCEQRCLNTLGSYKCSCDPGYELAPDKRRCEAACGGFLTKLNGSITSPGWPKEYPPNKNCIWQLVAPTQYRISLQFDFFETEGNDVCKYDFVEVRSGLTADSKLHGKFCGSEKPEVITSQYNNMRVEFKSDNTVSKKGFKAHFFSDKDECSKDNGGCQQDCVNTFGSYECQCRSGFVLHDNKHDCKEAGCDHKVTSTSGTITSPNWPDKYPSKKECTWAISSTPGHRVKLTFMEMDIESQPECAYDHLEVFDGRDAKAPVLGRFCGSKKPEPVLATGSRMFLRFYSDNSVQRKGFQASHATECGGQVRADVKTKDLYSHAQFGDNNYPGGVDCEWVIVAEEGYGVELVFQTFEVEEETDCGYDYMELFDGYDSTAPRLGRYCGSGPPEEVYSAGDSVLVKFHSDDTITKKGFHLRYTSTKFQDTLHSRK

[2] = molecular target: T1, Bone morphogenetic protein 1; assay: Inhibition of C-terminal FLAG-6x-His epitope tagged and N-terminal human RAGE signal sequence tagged human BMP1 (23 to 721 amino acids) expressed in CHO-E1 cells pre-incubated for 10 mins before promyostatin peptide substrate addition and measured after 30 mins using 50 nM BMP1 by FRET based assay; assay type: cell-based
Tolloid-like protein 1 = Tolloid-like protein 1 (Homo sapiens, UniProt O43897, I156V/N221S/V284A); assay: Inhibition of recombinant human TLL1 I156V/N221S/V284A mutant expressed in CHOE1A cells pre-incubated for 10 mins before promyostatin peptide substrate addition and measured after 60 mins by FRET based assay; assay type: cell-based
Chain of Tolloid-like protein 1 (O43897 148-1013 I156V/N221S/V284A limits assumed): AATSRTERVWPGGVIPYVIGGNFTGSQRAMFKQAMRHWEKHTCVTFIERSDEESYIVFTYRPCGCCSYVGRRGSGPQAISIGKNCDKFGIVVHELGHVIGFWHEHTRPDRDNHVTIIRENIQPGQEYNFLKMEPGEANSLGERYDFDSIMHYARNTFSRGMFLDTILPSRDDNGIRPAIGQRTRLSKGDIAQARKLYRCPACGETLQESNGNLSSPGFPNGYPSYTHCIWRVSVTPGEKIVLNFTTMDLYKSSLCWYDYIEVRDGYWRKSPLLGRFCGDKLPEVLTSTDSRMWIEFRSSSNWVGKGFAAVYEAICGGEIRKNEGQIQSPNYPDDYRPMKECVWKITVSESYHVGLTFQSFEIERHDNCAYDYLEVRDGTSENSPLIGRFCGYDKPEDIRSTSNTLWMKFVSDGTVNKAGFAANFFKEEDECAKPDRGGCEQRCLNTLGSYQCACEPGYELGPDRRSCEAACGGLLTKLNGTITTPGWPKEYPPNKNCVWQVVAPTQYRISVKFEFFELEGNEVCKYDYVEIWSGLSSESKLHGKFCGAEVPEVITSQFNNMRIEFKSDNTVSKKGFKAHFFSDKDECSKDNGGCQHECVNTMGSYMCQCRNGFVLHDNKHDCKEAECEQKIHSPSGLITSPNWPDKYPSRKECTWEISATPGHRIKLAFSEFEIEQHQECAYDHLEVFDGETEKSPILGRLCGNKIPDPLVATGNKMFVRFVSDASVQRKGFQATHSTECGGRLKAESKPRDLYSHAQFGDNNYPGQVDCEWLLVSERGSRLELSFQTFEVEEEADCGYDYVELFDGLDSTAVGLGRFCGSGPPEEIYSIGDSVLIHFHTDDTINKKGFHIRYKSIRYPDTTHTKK

Tolloid-like protein 2 = molecular target: T2, Tolloid-like protein 2 (Homo sapiens, UniProt Q9Y6L7); assay: Inhibition of C-terminal Avi-6x-His epitope tagged and N-terminal human RAGE signal sequence tagged recombinant human TLL2 (26 to 1015 amino acids) expressed in CHOE1A cells incubated for 60 mins with promyostatin peptide substrate by FRET based assay; assay type: cell-based
T2 sequence (Q9Y6L7 whole entry): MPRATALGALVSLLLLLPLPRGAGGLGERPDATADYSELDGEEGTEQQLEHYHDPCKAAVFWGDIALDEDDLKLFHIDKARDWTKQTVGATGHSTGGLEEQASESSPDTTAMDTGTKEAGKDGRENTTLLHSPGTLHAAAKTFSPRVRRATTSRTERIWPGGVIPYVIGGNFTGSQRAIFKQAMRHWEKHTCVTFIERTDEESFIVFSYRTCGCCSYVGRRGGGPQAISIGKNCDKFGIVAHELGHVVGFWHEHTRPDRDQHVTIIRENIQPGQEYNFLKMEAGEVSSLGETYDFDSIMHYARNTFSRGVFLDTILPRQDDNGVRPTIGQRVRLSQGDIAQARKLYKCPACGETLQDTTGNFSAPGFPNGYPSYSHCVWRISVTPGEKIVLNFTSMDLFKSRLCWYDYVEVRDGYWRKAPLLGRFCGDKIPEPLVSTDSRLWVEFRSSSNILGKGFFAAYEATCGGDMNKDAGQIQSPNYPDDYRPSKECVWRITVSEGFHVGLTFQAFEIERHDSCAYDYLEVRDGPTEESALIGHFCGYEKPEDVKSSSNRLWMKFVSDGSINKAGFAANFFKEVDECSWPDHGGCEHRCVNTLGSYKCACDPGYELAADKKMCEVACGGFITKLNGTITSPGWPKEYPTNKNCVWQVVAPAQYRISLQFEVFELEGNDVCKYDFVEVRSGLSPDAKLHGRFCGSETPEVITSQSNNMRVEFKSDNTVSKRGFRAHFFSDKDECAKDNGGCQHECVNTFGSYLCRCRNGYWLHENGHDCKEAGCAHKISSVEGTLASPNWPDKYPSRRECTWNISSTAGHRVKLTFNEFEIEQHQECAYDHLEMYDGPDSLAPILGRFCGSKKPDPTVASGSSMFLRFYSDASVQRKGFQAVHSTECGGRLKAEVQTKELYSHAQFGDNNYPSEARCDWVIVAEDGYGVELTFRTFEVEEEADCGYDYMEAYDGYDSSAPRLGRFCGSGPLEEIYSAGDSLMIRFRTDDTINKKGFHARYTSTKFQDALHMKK

[3] = Reduction in PICP levels in human cardiac fibroblasts incubated for 24 to 48 hrs by ELISA; assay type: functional
Outline: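 Human cardiac fibroblasts no older than passage 6 were seeded at 10,000 to 15,000 cells per well in 96-well plates and, one day later, exposed for 24 to 48 hr at 37° C to treatment in ficoll crowding EMEM with 100 μM ascorbic acid and less than 0.3% DMSO. IC50 was determined in GraphPad Prism from a log(inhibitor)-response fit of procollagen I C-terminal propeptide levels in the medium, measured by Quidel ELISA and expressed relative to untreated controls.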

Row | SMILES | IC50 [1] | IC50 [2] | IC50 (Tolloid-like protein 1) | IC50 (Tolloid-like protein 2) | IC50 [3]
1 | CCCCC[C@@H](C(=O)NCNC(=O)c1ccc(-c2cccc(C(C)(C)C(=O)O)c2)o1)[C@@H](CC)N(O)C=O | < 126 nM | < 200 nM | < 398 nM | < 794 nM | < 3980 nM
2 | CCCCC[C@@H](C(=O)NCNC(=O)c1ccc(-c2cc(OCC)cc(C(=O)NCCN)c2)o1)[C@@H](CC)N(O)C=O | < 126 nM | < 200 nM | < 398 nM | < 794 nM | < 3980 nM
3 | CCCCC[C@@H](C(=O)NCNC(=O)c1ccc(-c2cc(OCC)cc(C(=O)NCC[N+](C)(C)C)c2)o1)[C@@H](CC)N(O)C=O | < 126 nM | < 200 nM | < 398 nM | < 794 nM | < 3980 nM
4 | CCCCC[C@@H](C(=O)NCNC(=O)c1ccc(-c2ccc(C(=O)NCP(=O)(O)O)c(C)c2)o1)[C@@H](CC)N(O)C=O | < 126 nM | < 200 nM | < 398 nM | < 794 nM | < 3980 nM
5 | CCCCC[C@H](CN(O)C=O)C(=O)NCNC(=O)c1ccc(-c2ccc(O)c(C(=O)O)c2)o1 | < 126 nM | < 200 nM | < 398 nM | < 794 nM | < 3980 nM
6 | CCCCC[C@@H](C(=O)NCNC(=O)c1ccc(-c2ccc(C(=O)O)c(O)c2)o1)[C@@H](CC)N(O)C=O | < 126 nM | < 200 nM | < 398 nM | < 794 nM | < 3980 nM
7 | CCCCC[C@@H](C(=O)NCNC(=O)c1ccc(-c2ccc(C(C)(C)C(=O)O)cc2)o1)[C@@H](CC)N(O)C=O | < 126 nM | < 200 nM | < 398 nM | < 794 nM | < 3980 nM
8 | CCCCC[C@H](CN(O)C=O)C(=O)NCNC(=O)c1ccc(-c2cccc(SC)c2)o1 | < 126 nM | < 200 nM | < 398 nM | < 794 nM | < 3980 nM
9 | CCOc1cc(-c2ccc(C(=O)NCNC(=O)[C@H](CCc3ccc4ccccc4c3)[C@@H](CC)N(O)C=O)o2)cc(P(=O)(O)O)c1 | < 126 nM | < 200 nM | – | – | < 3980 nM
10 | CCCCC[C@@H](C(=O)NCNC(=O)c1ccc(-c2ccc(C(=O)O)c(CC(=O)O)c2)o1)[C@@H](CC)N(O)C=O | < 126 nM | < 200 nM | < 398 nM | < 794 nM | < 3980 nM
11 | CCCCC[C@@H](C(=O)NCNC(=O)c1ccc(-c2ccc(CC(=O)O)c(OCC)c2)o1)[C@@H](CC)N(O)C=O | < 126 nM | < 200 nM | < 398 nM | < 794 nM | < 3980 nM
12 | CCCCC[C@@H](C(=O)NCNC(=O)c1ccc(-c2ccc(C(=O)NCP(=O)(O)O)c(O)c2)o1)[C@@H](CC)N(O)C=O | < 126 nM | < 200 nM | < 398 nM | < 794 nM | < 3980 nM
13 | CCCCC[C@H](CN(O)C=O)C(=O)NCNC(=O)c1ccc(-c2cccc(OC(F)F)c2)o1 | < 126 nM | < 200 nM | < 398 nM | < 794 nM | < 3980 nM
14 | CCCCC[C@@H](C(=O)NCNC(=O)c1ccc(-c2cc(OCC)cc(C(=O)NC(CO)(CO)CO)c2)o1)[C@@H](CC)N(O)C=O | < 126 nM | < 200 nM | < 398 nM | < 794 nM | < 3980 nM
15 | CCCCC[C@H](CN(O)C=O)C(=O)NCNC(=O)c1ccc(-c2cccc(S(N)(=O)=O)c2)o1 | < 126 nM | < 200 nM | < 398 nM | < 794 nM | < 3980 nM
16 | CCCCC[C@@H](C(=O)NCNC(=O)c1ccc(-c2cc(OCC(=O)O)cc(P(=O)(O)O)c2)o1)[C@@H](CC)N(O)C=O | < 126 nM | < 200 nM | < 398 nM | < 794 nM | < 3980 nM
17 | CCCCC[C@H](CN(O)C=O)C(=O)NCNC(=O)c1ccc(-c2cccc(N(C)C)c2)o1 | < 126 nM | < 200 nM | < 398 nM | < 794 nM | < 3980 nM
18 | CCCCC[C@@H](C(=O)NCNC(=O)c1ccc(-c2cc(OCC)cc(C(=O)N(CC(=O)O)CC(=O)O)c2)o1)[C@@H](CC)N(O)C=O | < 126 nM | < 200 nM | < 398 nM | < 794 nM | < 3980 nM
19 | CCCCC[C@H](CN(O)C=O)C(=O)NCNC(=O)c1ccc(-c2cccc(CC(=O)O)c2)o1 | < 126 nM | < 200 nM | < 398 nM | < 794 nM | < 3980 nM
20 | CCCCC[C@H](CN(O)C=O)C(=O)NCNC(=O)c1ccc(-c2cc(OCC)cc(C(=O)O)c2)o1 | < 126 nM | < 200 nM | < 398 nM | < 794 nM | < 3980 nM
21 | CCCCC[C@@H](C(=O)NCNC(=O)c1ccc(-c2cc(OCC)cc(C(=O)N[C@H](CC(=O)O)C(=O)O)c2)o1)[C@@H](CC)N(O)C=O | < 126 nM | < 200 nM | < 398 nM | < 794 nM | < 3980 nM
22 | CCCCC[C@@H](C(=O)NCNC(=O)c1ccc(-c2cc(OCC)cc(C(=O)NCP(=O)(O)O)c2)o1)[C@@H](CC)N(O)C=O | < 126 nM | < 200 nM | < 398 nM | < 794 nM | < 3980 nM
23 | CCCCC[C@H](CN(O)C=O)C(=O)NCNC(=O)c1ccc(-c2ccc(F)c(C(=O)O)c2)o1 | < 126 nM | < 200 nM | < 398 nM | < 794 nM | < 3980 nM
24 | CCCCC[C@H](CN(O)C=O)C(=O)NCNC(=O)c1ccc(-c2cccc(OC(C)C)c2)o1 | < 126 nM | < 200 nM | < 398 nM | – | < 3980 nM
25 | CCCCC[C@@H](C(=O)NCNC(=O)c1ccc(-c2cc(CC(=O)O)cc(OCC)c2)o1)[C@@H](CC)N(O)C=O | < 126 nM | < 200 nM | – | – | < 3980 nM
26 | CCCCC[C@@H](C(=O)NCNC(=O)c1ccc(-c2cc(OCC)cc(C(=O)NCC(=O)O)c2)o1)[C@@H](CC)N(O)C=O | < 126 nM | < 200 nM | – | – | < 3980 nM
27 | CCCCC[C@H](CN(O)C=O)C(=O)NCNC(=O)c1ccc(-c2cc(OCC)cc(C(=O)NCCN)c2)o1 | < 126 nM | < 200 nM | – | – | < 3980 nM
